Assay results as given in patent US20090191144A1, “USE OF LIPID COMPONENTS AGAINST POLLEN ALLERGIES” (BEIERSDORF AG, priority 2008, published 2009).

Test: Viscosity of preferred lipids
Type: physicochemical

## CCCCCCCCCCCCCCCCCC(=O)OCCCC [Crodamol BS, Butyl Stearate]
  Viskosity (in mPas) (s^−1 = 500): 100 mPas

## CC(C)CCCCCCCCCCCCCCCOC(=O)CC(O)C(=O)OCCCCCCCCCCCCCCCC(C)C (centres unmarked) [DUB MDIS, Diisostearyl Malate]
  Viskosity (in mPas) (s^−1 = 500): 113 mPas

## CCCCCCCCCCC(CO)CCCCCCCC (centres unmarked) [Eutanol G, Octyldodecanol]
  Viskosity (in mPas) (s^−1 = 500): 47.7 mPas

## CCCCOCCOP(=O)(OCCOCCCC)OCCOCCCC [Hostaphat B 310, Tributoxyethylphosphate]
  Viskosity (in mPas) (s^−1 = 500): 122 mPas

## CC(C)CCCC(C)CCCC(C)CCCCC(C)CCCC(C)CCCC(C)C (centres unmarked) [Motif, Squalan]
  Viskosity (in mPas) (s^−1 = 500): 220 mPas

## CCCCC(CC)C(=O)OCC(COC(=O)C(CC)CCCC)(COC(=O)C(CC)CCCC)COC(=O)C(CC)CCCC (centres unmarked) [Trivent PE 48, Pentaerythrityl Tetraethylhexanoate]
  Viskosity (in mPas) (s^−1 = 500): 116 mPas

## Hydroxystearate Glycerol Triacetyle
  Viskosity (in mPas) (s^−1 = 500): 65 mPas

## PEG-2 Diethylhexanoate [Dermol 488]
  Viskosity (in mPas) (s^−1 = 500): 110 mPas

## Pentaerythrityl Tetraisostearate [Crodamol PTIS 3797]
  Viskosity (in mPas) (s^−1 = 500): 390 mPas

## Pentaerythrityl Tetraisostearate [DUB PTIS]
  Viskosity (in mPas) (s^−1 = 500): 57 mPas

## Tridecyl Trimellitate [DUB TMTD]
  Viskosity (in mPas) (s^−1 = 500): 116 mPas

## Triisodecyl Trimelliate [DUB TMI]
  Viskosity (in mPas) (s^−1 = 500): 111 mPas

## Triisononanoin [Isodragol]
  Viskosity (in mPas) (s^−1 = 500): 67 mPas

## Triisostearin [Prisorine 2041 GTIS]
  Viskosity (in mPas) (s^−1 = 500): 99 mPas
